Results: patent US4423071A, “Polyol derivatives, processes for preparing the same and their uses in therapeutics” (Sanofi, priority 1979, dated 1983)
“Also recorded” adds a separate entry of the source. Like-named read-outs stand apart in the source and are kept apart here.

How the values were obtained:
[1] = tested on: Pentylenetetrazol-induced seizure; experiment: Pentylenetetrazol-induced seizure (anticonvulsant action); assay type: in vivo; settings: rats, oral, ester 600 mg/kg, acid 100 mg/kg, pentylenetetrazol 125 mg/kg i.p.
Method: The results of trials performed with such di-n-propylacetyl derivatives in order to determine the anticonvulsant action are set out below.
The anticonvulsant action was determined using pentylenetetrazol as convulsant agent.
Batches of 10 rats were treated by oral route with a dose of 600 mg/kg of glyceryl 1-(di-n-propylacetate).
At various times after administration, the animals received an intraperitoneal dose of 125 mg/kg of pentylenetetrazol.
The percentage of protection against the convulsive seizure was then determined at each of the times in question.
A similar trial was carried out with 100 mg/kg of di-n-propylacetic acid.
This dose represents the amount of di-n-propylacetic acid required to provide a di-n-propylacetic acid blood-level equivalent to the maximum level obtained with 600 mg/kg of glyceryl 1-(di-n-propylacetate). The results obtained are given in the following Table in which are shown the percentage of protection achieved at the various times indicated: […]

[2] = design: species or system humans; settings: in vivo
Method: FIG. 8: represents blood-levels in di-n-propylacetic acid obtained from:
(a) An oral dose of 600 mg of glyceryl 1-(di-n-propylacetate) (Curve 1)
(b) An oral dose of 476 mg of glyceryl 1,2-bis-(-di-n-propylacetate) (Curve 2)
(c) An oral dose of 460 mg of sodium di-n-propylacetate (Curve 3)
FIG. 9: represents the blood-levels in di-n-propylacetic acid obtained from the oral administration of 1000 mg of glyceryl 1,2-bis-(di-n-propylacetate) every 24 hours for 4 days.
FIG. 10: represents the blood-levels in di-n-propylacetic acid obtained from:
(a) An oral dose of 1000 mg of mixtures of glyceryl 1,2-bis-(di-n-propylacetate)/glyceryl 1,3-bis-(di-n-propylacetate)
("Mixtures A and B" referred to above) (Curves 1 to 5)
(b) An oral dose of 1000 mg of sodium di-n-propylacetate (Curve 6)
FIG. 11: represents the blood-levels in di-n-propylacetic acid obtained from an oral dose of 1000 mg of 1,2-propanediol bis-(di-n-propylacetate).

rats = experiment: Acute toxicity tests in rats; settings: rat, in vivo
From the text: (§1) The results of acute toxicity tests obtained with compounds of the invention are given below:

[3] = Pharmacokinetic trials with animals (species not specified), release of parent acid; assay type: in vivo, animal
[4] = Acute toxicity tests in mice; settings: mouse, in vivo, oral route
[5] = Acute toxicity tests in rats; settings: rat, in vivo; rats, oral route
From the text: as §1

[6] = design: species or system rats; settings: rat, in vivo, po, 600 mg/kg
Method: The first series of drawings represent blood-levels in acid of formula I above in relation to time, this acid being either released from a salt thereof or from an ester of the invention.
FIG. 1: represents blood-levels in di-n-propylacetic acid obtained from:
(a) An oral dose to rats of 600 mg/kg of either: glyceryl 1-(di-n-propylacetate) (Curve 1) or glyceryl 1,2-bis-(di-n-propylacetate) (Curve 2) or glyceryl 1,3-bis-(di-n-propylacetate) (Curve 3)
(b) An intravenous dose to rats of 200 mg/kg of sodium di-n-propylacetate (Curve 4) […] FIG. 6: represents blood-levels in di-n-propylacetic acid obtained from: […]
(b) An intravenous dose to rats of 200 mg/kg of sodium di-n-propylacetate (Curve 3) FIG. 7: represents blood-levels in di-n-propylacetic acid obtained from:
1,4-butanediol bis-(di-n-propylacetate) (Curve 1) or 2-buten-1,4-diol bis-(di-n-propylacetate) (cis isomer) (Curve 2) or 2-butyn-1,4-diol bis-(di-n-propylacetate) (Curve 3)

[7] = in vivo; cited from earlier work
[8] = tested on: Chronic cobalt-induced epilepsy; experiment: Chronic cobalt-induced epilepsy; assay type: in vivo, rats; settings: 14 days i.p., sodium salt 2 x 200 mg/kg daily, Mixture A 400 mg/kg daily
Method: This trial was performed in comparison with sodium di-n-propylacetate. Batches of rats were given for 14 days either two daily intraperitoneal doses of 200 mg/kg (morning and evening) of sodium di-n-propylacetate or a daily intraperitoneal dose of 400 mg/kg (evening) of a mixture of glyceryl 1,2- and 1,3-bis-(di-n-propylacetates) ("Mixture A").

Compound | percentage of protection against the convulsive seizure ([1]; 0.5 h) [%] | percentage of protection against the convulsive seizure ([1]; 1 h) [%] | percentage of protection against the convulsive seizure ([1]; 2 h) [%] | percentage of protection against the convulsive seizure ([1]; 4 h) [%] | percentage of protection against the convulsive seizure ([1]; 8 h) [%] | percentage of protection against the convulsive seizure ([1]; 16 h) [%] | slow-release of di-n-propylacetic acid in the human body ([2]; po) | release of di-n-propylacetic acid in the animal organism [3] | LD50 [4] [mg/kg] | LD50 [5] [mg/kg] | further results
CCCC(CCC)C(=O)O [di-n-propylacetic acid, reference compound] | 23 | 0 | 0 | 0 | 0 | 0 |  |  |  |  | 
CCCC(CCC)C(=O)OCC(CO)OC(=O)C(CCC)CCC (stereo not shown) [glyceryl 1,2-bis-(di-n-propylacetate), Glyceryl 1,2-bis-(di-n-propylacetate)] |  |  |  |  |  |  | can provide the slow-release of di-n-propylacetic acid in the human body to a degree which enables therapeutic blood-levels in this acid to be attained | possess the requisite qualities to enable di-n-propylacetic acid to be released in the animal organism at a decreasing rate |  |  | LD0 (rats; ip): > 2000 mg/kg; LD0 (rats; po): > 5000 mg/kg
CCCC(CCC)C(=O)OCC(O)COC(=O)C(CCC)CCC [glyceryl 1,3-bis-(di-n-propylacetate), Glyceryl 1,3-bis-(di-n-propylacetate)] |  |  |  |  |  |  | can provide the slow-release of di-n-propylacetic acid in the human body to a degree which enables therapeutic blood-levels in this acid to be attained | possess the requisite qualities to enable di-n-propylacetic acid to be released in the animal organism at a decreasing rate |  |  | bioavailability compared with the 1,2-diester [2]: better bioavailability than that of the corresponding 1,2-diester; blood-levels in di-n-propylacetic acid compared with the 1,2-diester [2]: Very similar results
CCCC(CCC)C(=O)OCC(O)CO (stereo not shown) [glyceryl 1-(di-n-propylacetate), Glyceryl 1-(di-n-propylacetate)] | 29 | 56 | 41 | 43 | 35 | 22 | quite unable to induce a slow-release in di-n-propylacetic acid in the blood | possess the requisite qualities to enable di-n-propylacetic acid to be released in the animal organism at a decreasing rate | 3360 | 2360 | metabolism to glycerol and di-n-propylacetic acid [2]: too rapid; blood-levels in di-n-propylacetic acid (FIG. 1) [6]: resists the rapid elimination of this acid and maintains a high blood-level in this acid
CCCC(CCC)C(=O)OCC(COC(=O)C(CCC)CCC)OC(=O)C(CCC)CCC [glyceryl tri-(di-n-propylacetate)] |  |  |  |  |  |  |  |  |  |  | slow-release properties as reported in the literature [7]: a remarkably useful substance which has all the properties expected of a slow-release preparation; also recorded: can act as a slow-release form of di-n-propylacetic acid; bioavailability ([2]; po): poor bioavailability; bioavailability [6]: poor bioavailability; maximum blood-levels in di-n-propylacetic acid [6]: ≤ 10 µg/mL; time until di-n-propylacetic acid appeared in the blood [6]: ≥ 150 min; value as a slow-release form of di-n-propylacetic acid [6]: of no value as a slow-release form of di-n-propylacetic acid
CCCC(CCC)C(=O)[O-].[Na+] [sodium di-n-propylacetate, reference compound] |  |  |  |  |  |  |  |  | 1700 | 1530 | apparent half-life of di-n-propylacetic acid ([2]; human, po): 11 h 35 min h min; Number of seizures between the 7th and 14th day ([8]; controls 3.57): 1.25; Number of rats presenting at least one seizure ([8]; controls 7/7): 3/4
